The target in assay [1] is T1, HCV NS5B RdRp genotype 1b (Hepatitis C virus genotype 1b, UniProt Q9WMX2).
T1 construct: The protein was expressed with an 18 amino acid C-terminal truncation to enhance the solubility; made in house; host or cells: E. coli BL21(DE3), pET21a vector
In words: Modified HCV NS5B RdRp enzyme assay (preincubation protocol). The format is biochemical. As to the method: HCV NS5B RdRp Cloning, Expression, and Purification.
The cDNA encoding the NS5B protein of HCV, genotype 1b, was cloned into the pET21a expression vector. The protein was expressed with an 18 amino acid C-terminal truncation to enhance the solubility. The E. coli competent cell line BL21(DE3) was used for expression of the protein. Cultures were grown at 37° C. for ˜4 hours until the cultures reached an optical density of 2.0 at 600 nm. The cultures were cooled to 20° C. and induced with 1 mM IPTG. Fresh ampicillin was added to a final concentration of 50 μg/ml and the cells were grown overnight at 20° C.
Cell pellets (3 L) were lysed for purification to yield 15-24 mgs of purified NS5B. The lysis buffer consisted of 20 mM Tris-HCl, pH 7.4, 500 mM NaCl, 0.5% triton X-100, 1 mM DTT, 1 mM EDTA, 20% glycerol, 0.5 mg/ml lysozyme, 10 mM MgCl2, 15 ug/ml deoxyribonuclease I, and Complete TM protease inhibitor tablets (Roche). After addition of the lysis buffer, frozen cell pellets were resuspended using a tissue homogenizer. To reduce the viscosity of the sample, aliquots of the lysate were sonicated on ice using a microtip attached to a Branson sonicator. The sonicated lysate was centrifuged at 100,000×g for 1 hr at 4° C. and filtered through a 0.2 μm filter unit (Corning).
The protein was purified using three sequential chromatography steps: Heparin sepharose CL-6B, polyU sepharose 4B, and Hitrap SP sepharose (Pharmacia). The chromatography buffers were identical to the lysis buffer but contained no lysozyme, deoxyribonuclease I, MgCl2 or protease inhibitor and the NaCl concentration of the buffer was adjusted according to the requirements for charging the protein onto the column. Each column was eluted with a NaCl gradient which varied in length from 5-50 column volumes depending on the column type. After the final chromatography step, the resulting purity of the enzyme is >90% based on SDS-PAGE analysis. The enzyme was aliquoted and stored at −80° C.
Standard HCV NS5B RdRp Enzyme Assay.
HCV RdRp genotype 1b assays were run in a final volume of 60 μl in 96 well plates (Costar 3912). The assay buffer is composed of 20 mM Hepes, pH 7.5, 2.5 mM KCl, 2.5 mM MgCl2, 1 mM DTT, 1.6 U RNAse inhibitor (Promega N2515), 0.1 mg/ml BSA (Promega R3961), and 2% glycerol. All compounds were serially diluted (3-fold) in DMSO and diluted further in water such that the final concentration of DMSO in the assay was 2%. HCV RdRp genotype 1b enzyme was used at a final concentration of 28 nM. A polyA template was used at 6 nM, and a biotinylated oligo-dT12 primer was used at 180 nM final concentration. Template was obtained commercially (Amersham 27-4110). Biotinylated primer was prepared by Sigma Genosys. 3H-UTP was used at 0.6 μCi (0.29 μM total UTP). Reactions were initiated by the addition of enzyme, incubated at 30° C. for 60 min, and stopped by adding 25 μl of 50 mM EDTA containing SPA beads (4 μg/μl, Amersham RPNQ 0007). Plates were read on a Packard Top Count NXT after >1 hr incubation at room temperature.
Modified HCV NS5B RdRp Enzyme Assay.
A modified enzyme assay was performed essentially as described for the standard enzyme assay except for the following: The biotinylated oligo dT12 primer was precaptured on streptavidin-coated SPA beads by mixing primer and beads in assay buffer and incubating at room temperature for one hour. Unbound primer was removed after centrifugation. The primer-bound beads were resuspended in 20 mM Hepes buffer, pH 7.5 and used in the assay at final concentrations of 20 nM primer and 0.67 μg/μl beads. Order of addition in the assay: enzyme (14 nM) was added to diluted compound followed by the addition of a mixture of template (0.2 nM), 3H-UTP (0.6 μCi, 0.29 μM), and primer-bound beads, to initiate the reaction; concentrations given are final. Reactions were allowed to proceed for 4 hours at 30° C.
IC50 values for compounds were determined using seven different [I]. […]

The test system of another assay is HCV replicon cells. As to the kind of experiment: HCV replicon FRET assay. In kind it is cell-based. The note with it: Hepatitis C virus. An excerpt:
To perform the HCV FRET screening assay, 96-well cell culture plates were used. The FRET peptide (Anaspec, Inc.) (Taliani et al., Anal. Biochem. 1996, 240, 60-67) contains a fluorescence donor, EDANS, near one end of the peptide and an acceptor, DABCYL, near the other end. The fluorescence of the peptide is quenched by […] resonance energy transfer (RET) between the donor and the acceptor, but as the NS3 protease cleaves the peptide the products are released from RET quenching and the fluorescence of the donor becomes apparent. The assay reagent was made as follows: 5× cell Luciferase cell culture lysis reagent from Promega (#E153A) diluted to 1× with dH2O, NaCl added to 150 mM final, the FRET peptide diluted to 20 uM final from a 2 mM stock.
To prepare plates, HCV replicon cells, with or without a Renilla luciferase reporter gene, were trypsinized and placed into each well of a 96-well plate with titrated test compounds added in columns 3 through 12; columns 1 and 2 contained a control compound (HCV protease inhibitor), and the bottom row contained cells without compound. The plates were then placed in a CO2 incubator at 37° C.
Subsequent to addition of the test compounds described above (FRET Assay Preparation), at various times the plate was removed and Alamar blue solution (Trek Diagnostics, #00-100) was added per well as a measure of cellular toxicity. After reading in a Cytoflour 4000 instrument (PE Biosystems), plates were rinsed with PBS and then used for FRET assay by the addition of 30 ul of the FRET peptide assay reagent described above (FRET Assay Preparation) per well. The plate was then placed into the Cytoflour 4000 instrument which had been set to 340 excite/490 emission, automatic mode for 20 cycles and the plate read in a kinetic mode. Typically, the signal to noise using an endpoint analysis after the reads was at least three-fold. Alternatively, after Alamar blue reading, plates were rinsed with PBS, 50 ul of DMEM (high glucose) without phenol red was added and plates were then used for luciferase assay using the Promega Dual-Glo Luciferase Assay System.
Compound analysis was determined by quantification of the relative HCV replicon inhibition and the relative cytotoxicity values. To calculate cytoxicity values, the average Alamar Blue fluorescence signals from the control wells were set as 100% non-toxic. The individual signals in each of the compound test wells were then divided by the average control signal and multiplied by 100% to determine […]. To calculate the HCV replicon inhibition values, an average background value was obtained from the two wells containing the highest amount of HCV protease inhibitor at the end of the assay period. These numbers were similar to those obtained from naïve Huh-7 cells.
The background numbers were then subtracted from the average signal obtained from the control wells and this number was used as 100% activity. The individual signals in each of the compound test wells were then divided by the averaged control values after background subtraction and multiplied by 100% to determine percent activity. EC50 values for a protease inhibitor titration were calculated as the concentration which caused a 50% reduction in FRET or luciferase activity. The two numbers generated for the compound plate, percent cytoxicity and percent activity were used to determine compounds of interest for further analysis.

Structures are written as SMILES.

T1 sequence (Q9WMX2 2420-2992): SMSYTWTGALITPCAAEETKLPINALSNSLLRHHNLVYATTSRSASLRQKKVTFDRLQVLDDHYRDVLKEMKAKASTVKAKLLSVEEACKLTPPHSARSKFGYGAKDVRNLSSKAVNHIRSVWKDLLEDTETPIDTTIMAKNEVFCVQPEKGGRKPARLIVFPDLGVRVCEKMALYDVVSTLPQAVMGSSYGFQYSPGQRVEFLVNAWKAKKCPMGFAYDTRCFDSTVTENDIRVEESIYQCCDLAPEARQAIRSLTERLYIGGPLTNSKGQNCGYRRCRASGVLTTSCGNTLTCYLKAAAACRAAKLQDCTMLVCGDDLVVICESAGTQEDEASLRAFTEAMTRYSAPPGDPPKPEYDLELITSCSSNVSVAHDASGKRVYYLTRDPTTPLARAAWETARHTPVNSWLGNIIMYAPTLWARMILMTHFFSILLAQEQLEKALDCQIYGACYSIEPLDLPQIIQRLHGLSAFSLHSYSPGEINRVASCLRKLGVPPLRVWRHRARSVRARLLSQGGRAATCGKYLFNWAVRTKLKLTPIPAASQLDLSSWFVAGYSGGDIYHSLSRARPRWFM

In turn, `CN(C)S(=O)(=O)NC(=O)c1ccc2c(C3CCCCC3)c3n(c2c1)Cc1nncn1-c1ccccc1-3` [Example 2, 10-Cyclohexyl-N-((dimethylamino)sulfonyl)-4H-indolo[1,2-d][1,2,4]triazolo[4,3-a][1,4]benzodiazepine-7-carboxamide] showed an IC50 in assay [1] of 20 nM. This compound also registered an EC50 in the assay with HCV replicon cells of 160 nM.
For `Cc1cn2c(n1)Cn1c(c(C3CCCCC3)c3ccc(C(=O)O)cc31)-c1ccccc1-2` [Example 7, 10-Cyclohexyl-2-methyl-4H-imidazo[1,2-a]indolo[1,2-d][1,4]benzodiazepine-7-carboxylic acid], in that order: 130 nM and 2850 nM.
Consider `CN(C)S(=O)(=O)NC(=O)c1ccc2c(C3CCCCC3)c3n(c2c1)Cc1nccn1-c1ccccc1-3` [Example 6, 10-Cyclohexyl-N-((dimethylamino)sulfonyl)-4H-imidazo[1,2-a]indolo[1,2-d][1,4]benzodiazepine-7-carboxamide], for which the IC50 in assay [1] was 19 nM. In the assay with HCV replicon cells, this compound came in with an EC50 of 390 nM.
The like results for `O=C(O)c1ccc2c(C3CCCCC3)c3n(c2c1)Cc1nccn1-c1ccccc1-3` [Example 5, 10-Cyclohexyl-4H-imidazo[1,2-a]indolo[1,2-d][1,4]benzodiazepine-7-carboxylic acid] were, in that order, 26 nM and 740 nM.
In assay [1], `Cc1nnc2n1-c1ccccc1-c1c(C3CCCCC3)c3ccc(C(=O)O)cc3n1C2` [Example 3, 10-Cyclohexyl-1-methyl-4H-indolo[1,2-d][1,2,4]triazolo[4,3-a][1,4]benzodiazepine-7-carboxylic acid] showed an IC50 of 170 nM. The compound further came in with an EC50 in the assay on HCV replicon cells of 770 nM.
The like results for `O=C(O)c1ccc2c(C3CCCCC3)c3n(c2c1)Cc1nncn1-c1ccccc1-3` [Example 1, 10-Cyclohexyl-4H-indolo[1,2-d][1,2,4]triazolo[4,3-a][1,4]benzodiazepine-7-carboxylic acid] were, in that order, 140 nM and 910 nM.
For `Cc1nnc2n1-c1ccccc1-c1c(C3CCCCC3)c3ccc(C(=O)NS(=O)(=O)N(C)C)cc3n1C2` [Example 4, 10-Cyclohexyl-N-((dimethylamino)sulfonyl)-1-methyl-4H-indolo[1,2-d][1,2,4]triazolo[4,3-a][1,4]benzodiazepine-7-carboxamide], in that order: 54 nM and 320 nM.
In the case of `Cc1cn2c(n1)Cn1c(c(C3CCCCC3)c3ccc(C(=O)NS(=O)(=O)N(C)C)cc31)-c1ccccc1-2` [Example 8, 10-Cyclohexyl-N-((dimethylamino)sulfonyl)-2-methyl-4H-imidazo[1,2-a]indolo[1,2-d][1,4]benzodiazepine-7-carboxamide], in assay [1], the IC50 worked out at 33 nM. In the assay with HCV replicon cells, this compound gave an EC50 of 710 nM.

The values above are taken from patent publication US8431568B2, “Aromatic heterocyclic fused indolobenzadiazepine HCV NS5B inhibitors” (Bristol-Myers Squibb Company, priority 2008, dated 2013).
